# Experiments:
# [1] = test system: morningglory; experiment: Test A postemergence; format: in vivo, Ipomoea spp.
# How it was run: (§1)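 Visual 0–100 rating (100 = complete control) taken about 10 d post-treatment relative to untreated checks. Preemergence: directed soil spray on sown loam/sand pots. Postemergence: seedlings 2–10 cm, 1–2 leaf. Non-phytotoxic solvent formulation with surfactant.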
# [2] = test system: velvetleaf; experiment: Test A postemergence; format: in vivo, Abutilon theophrasti
# How it was run: as §1
# [3] = test system: sedge, umbrella; experiment: Test B flooded paddy test; format: in vivo, Cyperus difformis; conditions: Flood, 250 g ai/ha; 0 to 100 scale where 0 is no effect and 100 is complete control
# How it was run: (§2)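 2-leaf stage plants; pots flooded to 3 cm, compound added to paddy water, depth maintained. Greenhouse 13–15 d. Visual rating vs untreated controls, 0 (no effect) to 100 (complete control); dash = no result.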
# [4] = test system: barnyardgrass; experiment: Test A postemergence; format: in vivo, Echinochloa crus-galli
# How it was run: as §1
# [5] = test system: large (Lg) crabgrass; experiment: Test A postemergence; format: in vivo, Digitaria sanguinalis
# How it was run: as §1
# [6] = test system: velvetleaf; experiment: Test A preemergence; format: in vivo, Abutilon theophrasti; conditions: for Velvetleaf plant response rating: 500 g ai/ha
# How it was run: as §1
# [7] = test system: barnyardgrass; experiment: Test B flooded paddy test; format: in vivo, Echinochloa crus-galli; conditions: Flood, 250 g ai/ha; 0 to 100 scale where 0 is no effect and 100 is complete control
# How it was run: as §2
# [8] = test system: Heteranthera limosa; experiment: Test B flooded paddy test; format: in vivo; conditions: Flood, 250 g ai/ha; 0 to 100 scale where 0 is no effect and 100 is complete control
# How it was run: as §2
# [9] = test system: barnyardgrass; experiment: Test A preemergence; format: in vivo, Echinochloa crus-galli; conditions: for Barnyardgrass plant response rating: 500 g ai/ha
# How it was run: as §1
# [10] = test system: giant foxtail; experiment: Test A preemergence; format: in vivo, Setaria faberii; conditions: for Foxtail, Giant plant response rating: 500 g ai/ha
# How it was run: as §1
# [11] = test system: pigweed; experiment: Test A preemergence; format: in vivo, Amaranthus retroflexus; conditions: for Pigweed plant response rating: 500 g ai/ha
# How it was run: as §1
# [12] = test system: giant foxtail; experiment: Test A postemergence; format: in vivo, Setaria faberii
# How it was run: as §1
# [13] = test system: wheat; experiment: Test A postemergence; format: in vivo, Triticum aestivum
# How it was run: as §1
# [14] = test system: wheat; experiment: Test A preemergence; format: in vivo, Triticum aestivum; conditions: for Wheat plant response rating: 500 g ai/ha
# How it was run: as §1
# [15] = test system: large (Lg) crabgrass; experiment: Test A preemergence; format: in vivo, Digitaria sanguinalis; conditions: for Crabgrass, Large plant response rating: 500 g ai/ha
# How it was run: as §1
# [16] = test system: morningglory; experiment: Test A preemergence; format: in vivo, Ipomoea spp.; conditions: for Morningglory plant response rating: 500 g ai/ha
# How it was run: as §1
# [17] = test system: rice; experiment: Test B flooded paddy test; format: in vivo, Oryza sativa; conditions: Flood, 250 g ai/ha; 0 to 100 scale where 0 is no effect and 100 is complete control
# How it was run: as §2
# [18] = test system: pigweed; experiment: Test A postemergence; format: in vivo, Amaranthus retroflexus
# How it was run: as §1
# [19] = test system: corn; experiment: Test A postemergence; format: in vivo, Zea mays
# How it was run: as §1
# [20] = test system: corn; experiment: Test A preemergence; format: in vivo, Zea mays; conditions: for Corn plant response rating: 500 g ai/ha
# How it was run: as §1
# [21] = 125 g ai/ha, 0 to 100 scale, 0 no effect, 100 complete control
# [22] = 500 g ai/ha, 0 to 100 scale where 0 is no effect and 100 is complete control
# [23] = 0 to 100 scale where 0 is no effect and 100 is complete control
# [24] = 125 g ai/ha, 0 to 100 scale where 0 is no effect and 100 is complete control
# [25] = 500 g ai/ha, 0 to 100 scale, 0 no effect, 100 complete control
# [26] = 0 to 100 scale, 0 no effect, 100 complete control, approx. 10 days
compound,measurement,setting,value
Clc1cnc(Oc2cccc(-c3cccnc3)c2-n2cc(Br)cn2)nc1 [Compound 290],"Plant response rating, Morningglory",[1]; [21],0
same,"Plant response rating, Morningglory",[1]; [22],10
same,"Plant response rating, Velvetleaf",[2]; [21],10
same,"Plant response rating, Velvetleaf",[2]; [22],30
same,"Plant response rating, Sedge, Umbrella",[3],0
same,"Plant response rating, Barnyardgrass",[4]; [21],0
same,"Plant response rating, Barnyardgrass",[4]; [22],0
same,"Plant response rating, Crabgrass, Large",[5]; [21],0
same,"Plant response rating, Crabgrass, Large",[5]; [22],10
same,Velvetleaf plant response rating (0 to 100 scale),[6]; 125 g ai/ha,0
same,Velvetleaf plant response rating,[6]; [23],0
same,"Plant response rating, Barnyardgrass",[7],0
same,"Plant response rating, Ducksalad",[8],0
same,"Barnyardgrass plant response rating (0 to 100 scale, 0 is no effect, 100 is complete control)",[9]; 125 g ai/ha,0
same,Barnyardgrass plant response rating,[9]; [23],0
same,"Foxtail, Giant plant response rating (0 to 100 scale)",[10]; 125 g ai/ha,0
same,"Foxtail, Giant plant response rating",[10]; [23],10
same,Pigweed plant response rating (0 to 100 scale),[11]; 125 g ai/ha,0
same,Pigweed plant response rating,[11]; [23],0
same,"Plant response rating, Foxtail, Giant",[12]; [21],0
same,"Plant response rating, Foxtail, Giant",[12]; [22],10
same,"Plant response rating, Wheat",[13]; [21],0
same,"Plant response rating, Wheat",[13]; [22],0
same,Wheat plant response rating (0 to 100 scale),[14]; 125 g ai/ha,0
same,Wheat plant response rating,[14]; [23],0
same,"Crabgrass, Large plant response rating (0 to 100 scale)",[15]; 125 g ai/ha,0
same,"Crabgrass, Large plant response rating",[15]; [23],10
same,Morningglory plant response rating (0 to 100 scale),[16]; 125 g ai/ha,0
same,Morningglory plant response rating,[16]; [23],0
same,"Plant response rating, Rice",[17],0
same,"Plant response rating, Pigweed",[18]; [21],10
same,"Plant response rating, Pigweed",[18]; [22],20
same,"Plant response rating, Corn",[19]; [21],0
same,"Plant response rating, Corn",[19]; [22],10
same,Corn plant response rating (0 to 100 scale),[20]; 125 g ai/ha,0
same,Corn plant response rating,[20]; [23],0
O=Cc1cccc(Oc2ncc(Cl)cn2)c1-n1cc(Br)cn1 [Compound 61],"Plant response rating, Morningglory",[1]; [24],0
same,"Plant response rating, Morningglory",[1]; [25],0
same,"Plant response rating, Velvetleaf",[2]; [24],20
same,"Plant response rating, Velvetleaf",[2]; [25],30
same,"Plant response rating, Sedge, Umbrella",[3],0
same,"Plant response rating, Barnyardgrass",[4]; [24],0
same,"Plant response rating, Barnyardgrass",[4]; [25],0
same,"Plant response rating, Crabgrass, Large",[5]; [24],0
same,"Plant response rating, Crabgrass, Large",[5]; [25],0
same,"Plant response rating, Velvetleaf",[6]; [24],0
same,Velvetleaf plant response rating,[6]; [26],0
same,"Plant response rating, Barnyardgrass",[7],0
same,"Plant response rating, Ducksalad",[8],0
same,"Plant response rating, Barnyardgrass",[9]; [24],0
same,Barnyardgrass plant response rating,[9]; [26],20
same,"Plant response rating, Foxtail, Giant",[10]; [24],0
same,"Foxtail, Giant plant response rating",[10]; [26],0
same,"Plant response rating, Pigweed",[11]; [24],0
same,Pigweed plant response rating,[11]; [26],30
same,"Plant response rating, Foxtail, Giant",[12]; [24],0
same,"Plant response rating, Foxtail, Giant",[12]; [25],0
same,"Plant response rating, Wheat",[13]; [24],0
same,"Plant response rating, Wheat",[13]; [25],0
same,"Plant response rating, Wheat",[14]; [24],0
same,Wheat plant response rating,[14]; [26],0
same,"Plant response rating, Crabgrass, Large",[15]; [24],0
same,"Crabgrass, Large plant response rating",[15]; [26],20
same,"Plant response rating, Morningglory",[16]; [24],0
same,Morningglory plant response rating,[16]; [26],0
same,"Plant response rating, Rice",[17],0
same,"Plant response rating, Pigweed",[18]; [24],0
same,"Plant response rating, Pigweed",[18]; [25],0
same,"Plant response rating, Corn",[19]; [24],0
same,"Plant response rating, Corn",[19]; [25],0
same,"Plant response rating, Corn",[20]; [24],0
same,Corn plant response rating,[20]; [26],0

# Reference: patent US9695155B2, “Herbicidal substituted pyrimidinyloxy benzene compounds” (E. I. DU PONT DE NEMOURS AND COMPANY, priority 2013, dated 2017)
